Source: patent US4666908A, “5-Substituted pyrazolo[4,3-d]pyrimidine-7-ones and methods of use” (Warner-Lambert Company, priority 1985, dated 1987)
Like-named read-outs stand apart in the source and are kept apart here.

What was measured:
adenosine A1 receptor = target: T1, adenosine A1 receptor (Rattus norvegicus, UniProt P25099); assay: Adenosine Receptor Binding - A1 Receptor Affinity (RBA1), [3H]-N6-cyclohexyladenosine displacement; conditions: [3H]-CHA 1.0 nM, rat brain membranes, 25° C., one hour; read-out: RBA-1, IC50 for adenosine A1 receptor affinity
T1 construct: Whole brain minus cerebellum and brainstem from male Long Evans rats; from tissue; host or cells: whole brain minus cerebellum and brainstem, male Long Evans rats (membranes)
T1 sequence (P25099 1-326): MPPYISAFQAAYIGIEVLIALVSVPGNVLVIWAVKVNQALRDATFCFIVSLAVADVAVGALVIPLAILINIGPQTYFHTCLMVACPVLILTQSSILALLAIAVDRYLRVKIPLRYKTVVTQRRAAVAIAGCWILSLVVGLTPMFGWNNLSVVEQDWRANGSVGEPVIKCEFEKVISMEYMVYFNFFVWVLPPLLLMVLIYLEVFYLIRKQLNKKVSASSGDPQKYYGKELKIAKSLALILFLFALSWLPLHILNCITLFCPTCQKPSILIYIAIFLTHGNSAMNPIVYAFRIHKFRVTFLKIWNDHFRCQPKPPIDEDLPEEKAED
Procedure: Whole brain minus cerebellum and brainstem from male Long Evans rats (150-200 g) was homogenized in 30 volumes of ice-cold 0.05M Tris-HCl buffer pH 7.7 using a Brinkman Polytron PT-10, (setting number 6 for 20 seconds) and centrifuged for ten minutes at 20,000×g (Sorvall RC-2), 4° C. The supernatant was discarded, and the pellet was resuspended and centrifuged as before. […] The homogenate was again centrifuged, and the final pellet was resuspended in ice-cold 0.05 M Tris-HCl buffer pH 7.7 to a concentration of 20 mg/ml original wet tissue weight and used immediately. […] Incubation volume was 2 ml. […] The filters were rinsed three times with 5 ml of ice cold 0.05 M Tris-HCl buffer pH 7.7. The radio-labeled ligand retained on the filter was measured by liquid scintillation spectrophotometry after shaking the filters for one hour or longer on a mechanical shaker in 10 ml of Beckman Ready-Solv HP scintillation cocktail. […] The Hill coefficient was calculated by linear regression of the line obtained by plotting the log of the bound radioligand vs the log of the [formula] The maximal number of binding sites (Bmax) was calculated from the Scatchard plot.

[1] = system: pentobarbital-anesthetized dog; assay: In Vivo Myocardial Inotropic Activity in Anesthetized Dog (CVAD); parameters: species or system dog (adult mongrel); conditions: for change in vivo at 0.1 mg/kg / change in vivo at 0.3 mg/kg / change in vivo at 1 mg/kg / change in vivo at 3.1 mg/kg / change in vivo at 10 mg/kg / change in vivo at 0.31 mg/kg: Canis lupus familiaris, iv; for change in vivo at 0.3 mg/kg: 0.30 mg/kg IV; for change in vivo at 10 mg/kg: 10.00 mg/kg IV
Procedure: This test procedure is described in the following paragraphs.
This screen consists of determining the effects of increasing intravenous doses of compound on mycardial contractility (dP/dt max of left ventricular blood pressure), heart rate, and aortic blood pressure of the pentobarbital-anesthetized dog.
Adult mongrel dogs of either sex are anesthetized with pentobarbital, 35 mg/kg, IV, and are subsequently maintained under anesthesia with a continuous infusion of pentobarbital, 3.5 mg/kg/hour. The trachea is intubated but the animals are permitted to breathe spontaneously. A cannula is inserted into the femoral vein for administrating test agents. A Millar catheter tip pressure transducer or a fluid filled catheter is inserted into the ascending aorta via the femoral artery for measuring aortic blood pressure. A Millar catheter tip pressure transducer is passed into the left ventricle via the left carotid artery for measuring left ventricular blood pressure. Needle electrodes are placed subcutaneously for recording a lead II electrocardiogram (ECG).
Left ventricular and aortic blood pressures are recorded on a strip chart recorder. Heart rate, using a biotachometer triggered from the R wave of the ECG, and the first derivative of left ventricular blood pressure (dP/dt), obtained with a differentiator amplifier coupled to the corresponding pressure amplifier, are also recorded. A period of at least 30 minutes is utilized to obtain control data prior to administration of test compound.
Ethanol or dimethylacetamide can be used as solvents if adequate dilutions can be made. Appropriate vehicle controls are administered when needed.
Each dose of the test compound is administered in a volume of […] over a period of one minute.

Type 1 Phosphodiesterase = assay: Phosphodiesterase (PDE) Inhibition, Type 1 Phosphodiesterase; type: biochemical, bovine (coronary arteries); conditions: Type 1 PDE, at 10^-5 M; for % Inhibition of hydrolysis of 3H-cAMP: substrate 3H-cAMP 1.0 μM; for % Inhibition of hydrolysis of 3H-cGMP: substrate 3H-cGMP 1.0 μM
Excerpt: (§1) The method of Thompson, et al (Thompson, W. J., Terasaki, W. L., Epstein, P. M., Strada, S. J., Adv. Cyclic Nucleotide Res., 10:69-92, 1979), with minor modifications, was used to isolate phosphodiesterases from vascular smooth muscle. Bovine coronary arteries (right, anterior descending, and left circumflex arteries) from hearts obtained from a local slaughterhouse were used for these studies. Arteries from two hearts were used for each isolation. Hearts were kept on ice and the arteries were dissected within two hours after the animals were sacrificed. After removing all fat and connective tissue, the arteries were everted, cut into cubes with a single edge razor blade and homogenized with a Brinkman Polytron three times at a rheostat setting of 10.0 in four volumes of the PDE isolation buffer (10 mM Tris-HCl/pH 7.5, 2 mM MgCl2, and 1 mM dithiothreitol). The resulting homogenate was sonicated (30 sec/ml homogenate) and then centrifuged at 30,000 xg for 20 minutes. This and all subsequent procedures were performed at 4° C. The resulting supernatant was filtered through four layers of gauze, and applied to a DEAE-cellulose column (30×1.5 cm), prepared as described by Cheung (Cheung, W. Y., Biochim. Biophys. Acta, 191:303-315, 1969), and equilibrated with freshly prepared 70 mM sodium acetate/5 mM 2-mercaptoethanol (pH 6.5). The column was then washed with 2-3 bed volumes of sodium acetate/2-mercaptoethanol, after which the phosphodiesterases were eluted from the column using a continuous 70-1,000 mM sodium acetate gradient (pH 6.5, containing 5 mM 2-mercaptoethanol; total volume 400 ml). The flow rate was approximately equal to 25 ml/hr. Eight ml fractions were collected and assayed for cyclic AMP- and cyclic GMP-phosphodiesterase activity in the presence and absence of 0.1 units of calmodulin and 10 mM CaCl2. Appropriate fractions were pooled and dialyzed against 70 mM sodium acetate/5 mM 2-mercaptoethanol for 20 hours.
(§2) Following complete separation, the combined phosphodiesterase fractions were concentrated to 14% of the original volume using an Amicon ultrafiltration cell fitted with a UM-10 membrane, according to the method of Wells, et al (Wells, J. N., Baird, C. E., Wu, Y. J., Hardman, J. G., Biochim. Biophys. Acta, 384:430-442, 1975). Following concentration, the protein was then diluted to 65% with ethylene glycol monoethyl ether, and stored at -20° C.
(§3) Phosphodiesterase activity was measured as described previously (Weishaar, P. E., Quade, M., Boyd, D., Schenden, J., Mark, S. S., Kaplan, H. R., Drug Devel. Res., 3:517-534, 1983), in a reaction medium containing 40 mM Tris-HCl (pH 8.0), 5 mM MgCl and 4 mM 2-mercaptoethanol. Unless otherwise noted, the concentration of substrate (^3 H-cyclic AMP or ^3 H-cyclic GMP) was 1.0 μM. All agents examined were dissolved in dimethyl sulfoxide (DMSO). Final concentration of the reaction medium was either 2.5% (cardiac and platelet studies) or 1.25% (smooth muscle studies). This concentration of DMSO produced an approximately 10% inhibition of enzyme activity.

Type 3 Phosphodiesterase = assay: Phosphodiesterase (PDE) Inhibition, Type 3 Phosphodiesterase; type: biochemical, bovine (coronary arteries); conditions: Type 3 PDE, at 10^-5 M, substrate 3H-cAMP 1.0 μM
Excerpt: as §1, §2, §3

[2] = 0.10 mg/kg IV, read-out: Percent Change Blood Pressure
[3] = 0.10 mg/kg IV, read-out: Percent Change Heart Rate
[4] = 0.10 mg/kg IV, read-out: Percent Change Myocardial Contractility
[5] = read-out: Percent Change Blood Pressure
[6] = read-out: Percent Change Heart Rate
[7] = read-out: Percent Change Myocardial Contractility
[8] = 1.00 mg/kg IV, read-out: Percent Change Blood Pressure
[9] = 1.00 mg/kg IV, read-out: Percent Change Heart Rate
[10] = 1.00 mg/kg IV, read-out: Percent Change Myocardial Contractility
[11] = 3.10 mg/kg IV, read-out: Percent Change Blood Pressure
[12] = 3.10 mg/kg IV, read-out: Percent Change Heart Rate
[13] = 3.10 mg/kg IV, read-out: Percent Change Myocardial Contractility
[14] = 0.31 mg/kg IV, read-out: Percent Change Heart Rate
[15] = 0.31 mg/kg IV, read-out: Percent Change Myocardial Contractility

Row | Structure (SMILES) | IC50 (adenosine A1 receptor) | % Inhibition of hydrolysis of 3H-cAMP (Type 1 Phosphodiesterase) | % Inhibition of hydrolysis of 3H-cGMP (Type 1 Phosphodiesterase) | % Inhibition of hydrolysis of 3H-cAMP (Type 3 Phosphodiesterase) | change in vivo at 0.1 mg/kg [1, 2] | change in vivo at 0.1 mg/kg [1, 3] | change in vivo at 0.1 mg/kg [1, 4] | change in vivo at 0.3 mg/kg [1, 5] | change in vivo at 0.3 mg/kg [1, 6] | change in vivo at 0.3 mg/kg [1, 7] | change in vivo at 1 mg/kg [1, 8] | change in vivo at 1 mg/kg [1, 9] | change in vivo at 1 mg/kg [1, 10] | change in vivo at 3.1 mg/kg [1, 11] | change in vivo at 3.1 mg/kg [1, 12] | change in vivo at 3.1 mg/kg [1, 13] | change in vivo at 10 mg/kg [1, 7] | change in vivo at 0.31 mg/kg [1, 14] | change in vivo at 0.31 mg/kg [1, 15] | Percent Change Blood Pressure ([1]; 0.10 mg/kg IV) | also measured
1 | Cc1nn(C)c2c(=O)[nH]c(-c3cccc(N)c3)nc12 [Example 12, 1,3-Dimethyl-5-(3-aminophenyl)pyrazolo[4,3-d]pyrimidine-7-one] | 1540 nM | 6% | 9% | 33% | – | -8% | -1% | – | – | – | – | -8% | -12% | – | – | – | – | -10% | -19% | – | –
2 | Cc1nn(C)c2c(=O)[nH]c(-c3cccc([N+](=O)[O-])c3)nc12 [Example 13, 1,3-Dimethyl-5-(3-nitrophenyl)pyrazolo[4,3-d]pyrimidine-7-one] | 1200 nM | 30% | 18% | 50% | -2% | 2% | 6% | -4% | 4% | 5% | -7% | -3% | -7% | -12% | -3% | 6% | 101% | – | – | – | –
3 | Cc1nn(C)c2c(=O)[nH]c(-c3ccc(Cl)c(Cl)c3)nc12 [Example 15, 1,3-Dimethyl-5-(3,4-dichlorophenyl)pyrazolol[4,3-d]-pyrimidine-7one] | 887 nM | 5% | 3% | 0% | – | 7% | 8% | – | – | – | – | 9% | 13% | – | 12% | 13% | – | 7% | 10% | 1/2 | Percent Change Blood Pressure ([1]; 3.10 mg/kg IV): 1/2

Further compounds by falling IC50 (adenosine A1 receptor), results first:

Row | IC50 (adenosine A1 receptor) | % Inhibition of hydrolysis of 3H-cAMP (Type 1 Phosphodiesterase) | % Inhibition of hydrolysis of 3H-cGMP (Type 1 Phosphodiesterase) | % Inhibition of hydrolysis of 3H-cAMP (Type 3 Phosphodiesterase) | Structure (SMILES) | change in vivo at 0.1 mg/kg [1, 2] | change in vivo at 0.1 mg/kg [1, 3] | change in vivo at 0.1 mg/kg [1, 4] | change in vivo at 0.3 mg/kg [1, 5] | change in vivo at 0.3 mg/kg [1, 6] | change in vivo at 0.3 mg/kg [1, 7] | change in vivo at 1 mg/kg [1, 8] | change in vivo at 1 mg/kg [1, 9] | change in vivo at 1 mg/kg [1, 10] | change in vivo at 3.1 mg/kg [1, 11] | change in vivo at 3.1 mg/kg [1, 12] | change in vivo at 3.1 mg/kg [1, 13] | change in vivo at 10 mg/kg [1, 7] | change in vivo at 0.31 mg/kg [1, 14] | change in vivo at 0.31 mg/kg [1, 15] | Percent Change Blood Pressure ([1]; 0.10 mg/kg IV) | also measured
4 | 880 nM | 16% | 6% | 1% | Cc1nn(C)c2c(=O)[nH]c(-c3ccc([N+](=O)[O-])cc3)nc12 [Example 9, 1,3-Dimethyl-5-(4-nitrophenyl)pyrazolo[4,3-d]pyrimidine-7-one] | – | 1% | 4% | – | – | – | – | -3% | 4% | – | 1% | 2% | – | 0% | 5% | – | –
5 | 417 nM | 14% | 15% | 15% | Cc1ccc(-c2nc3c(C)nn(C)c3c(=O)[nH]2)cc1 [Example 8, 1,3-Dimethyl-5-(4-methylphenyl)pyrazolo[4,3-d]pyrimidine-7-one] | -1% | 5% | 7% | 0% | 5% | 10% | 3% | 6% | 20% | 3% | 10% | 22% | 82% | – | – | – | –
6 | 385 nM | 19% | 15% | 32% | Cc1nn(C)c2c(=O)[nH]c(-c3ccc(N)cc3)nc12 [Example 11, 1,3-Dimethyl-5-(4-aminophenyl)pyrazolo[4,3-d]pyrimidine-7-one] | – | 1% | 9% | – | – | – | – | 5% | 25% | – | 15% | 66% | – | 3% | 17% | 1/1 | Percent Change Blood Pressure ([1]; 0.31 mg/kg IV): 5/3; Percent Change Blood Pressure ([1]; 1.00 mg/kg IV): 1/0
